Reference: PubChem BioAssay (NCI)
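Interpolation was linear, between the two tested concentrations surrounding the appropriate level; five concentrations were tested over 48 hours in 96-well plates. TGI is the concentration that stops growth completely.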

Legend:
Assay in all cases: NCI tumour cell line growth inhibition, 48 h
[1] = system: IGROV1 ovarian
[2] = system: UACC-257 melanoma
[3] = system: NCI-H23 lung
[4] = system: DU-145 prostate
[5] = system: RPMI-8226 leukemia
[6] = system: SK-MEL-28 melanoma
[7] = system: A498 renal
[8] = system: SF-539 CNS
[9] = system: 786-0 renal
[10] = system: M14 melanoma
[11] = system: SN12C renal
[12] = system: K-562 leukemia
[13] = system: OVCAR-3 ovarian
[14] = system: HS 578T breast
[15] = system: SF-268 CNS
[16] = system: CAKI-1 renal
[17] = system: HT29 colon
[18] = system: SK-MEL-2 melanoma
[19] = system: NCI-H226 lung
[20] = system: NCI/ADR-RES ovarian
[21] = system: UACC-62 melanoma
[22] = system: LOX IMVI melanoma
[23] = system: PC-3 prostate
[24] = system: COLO 205 colon
[25] = system: OVCAR-5 ovarian
[26] = system: MDA-MB-231 breast
[27] = system: HCT-116 colon
[28] = system: TK-10 renal
[29] = system: MOLT-4 leukemia
[30] = system: EKVX NSCLC
[31] = system: MALME-3M melanoma
[32] = system: SK-MEL-5 melanoma
[33] = system: CCRF-CEM leukemia
[34] = system: SF-295 CNS
[35] = system: UO-31 renal
[36] = system: RXF 393 renal
[37] = system: MDA-MB-435
[38] = system: SK-OV-3 ovarian
[39] = system: KM12 colon
[40] = system: MCF7 breast
[41] = system: HCT-15 colon
[42] = system: HL-60(TB) leukemia
[43] = system: BT-549 breast
[44] = system: ACHN renal
[45] = system: SNB-19 CNS
[46] = system: MDA-N
[47] = system: SW-620 colon
[48] = system: U251 CNS
[49] = system: OVCAR-8 ovarian
[50] = system: NCI-H522 lung
[51] = system: HOP-62 NSCLC
[52] = system: SNB-75 CNS
[53] = system: HOP-92 NSCLC
[54] = system: OVCAR-4 ovarian
[55] = system: A549 NSCLC
[56] = system: SR leukemia

Measured: TGI

O=C(c1ccc(Cl)cc1Cl)N(C(=O)N1CCCCC1)c1ccccc1
not listed: [50] | [51] | [52] | [53] | [54] | [55] | [56]
> 100 µM: all other assays above

Cc1nnc([C@@]2(C)CC[C@H]3[C@@H](CC=C4C[C@@H](O)CC[C@@]43C)[C@@H]2CC#N)o1
not listed: [1] | [4] | [6]
> 100 µM: all other assays above
